This note sets out measurements from PubChem BioAssay (NCI).

Converted amounts (≈) assume the structure as drawn. “And” between values parts separate entries of the source, which are not always exact repeats. Identical values can stand only once.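 How tested: cells in 96-well plates exposed to compound for 48 hours at five concentrations. GI50 = concentration required for 50% inhibition of growth. TGI marks complete inhibition of growth.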

Test systems include RXF-631 renal; P388/ADR leukemia; P388 leukemia; SN12K1 renal.
Holding throughout (experiment): NCI tumour cell line growth inhibition, 48 h

Molecule `COC(=O)NN1C(C)=C(C(=O)OC)C2(C#N)C(C(=O)OC)=C(C)N(NC(=O)OC)C12N` (configuration not stated) displayed a TGI with RXF-631 renal of over 100 µM.
As for `COC(C(=O)C(O)C(C)O)C1Cc2cc3cc(OC4CC(OC5CC(O)C(O)C(C)O5)C(O)C(C)O4)c(C)c(O)c3c(O)c2C(=O)C1OC1CC(OC2CC(O)C(OC3CC(C)(O)C(O)C(C)O3)C(C)O2)C(O)C(C)O1` (configuration not stated), the figures for the GI50 with P388/ADR leukemia, in the assay on P388 leukemia and with SN12K1 renal were 1.32 ng/mL (≈ 1.22 nM), 0.056 ng/mL (≈ 0.0516 nM) and 0.0304 ng/mL (≈ 0.028 nM), respectively. In addition, the figures for the TGI in the assay with P388/ADR leukemia, in the assay on P388 leukemia and in the assay with SN12K1 renal were 20.4 ng/mL (≈ 18.8 nM), 0.798 ng/mL (≈ 0.735 nM) and 150 ng/mL, respectively.
On to `C/C=C(/CCC1NCCC2c3ccccc3NC12)[Si](C)(C)C` (configuration not stated), for which, in the assay with RXF-631 renal, the TGI was found to be 23.4 µM.
The same measure, in the same setting: the value for `Cn1c2ccccc2c(=O)c2c(O)cc3c(c21)CC(C1(C)CO1)O3` (configuration not stated) was over 33.6 µM.
`C=C(C)C1CC=C(C)CC1` (configuration not stated): in the assay with RXF-631 renal, the GI50 was over 100 µM; the TGI is > 100 µM and 1720 µM.
`Cn1c(=O)c2ccc(-c3ccc(Br)cc3)nc2n(C)c1=O` showed a TGI with RXF-631 renal of over 100 µM.
The same measure, in the same setting: the figure for `Cc1cc(=O)n2c3c(c4c(cc13)c(CO)cc(=O)n4C)OC2` is 38.9 µM; for `CC1(c2cccc(N)c2)C2C(=O)NC(=O)C1C(=O)NC2=O` (configuration not stated) it is over 100 µM; for `CSc1nc2c(nc(N)n2C2OC(COC(C)=O)C(OC(C)=O)C(OC(C)=O)C2OC(C)=O)c(=O)n1C` (configuration not stated) it is over 100 µM.
In the assay with SN12K1 renal, `C/C(=N\NC(=S)N1CCN(C2CCCCCC2)CC1)c1ccccn1` gave a TGI of 1.56 µM.
On to `C=C1COC(O)(C2OCOC(C3CC(=O)NC(=O)C3)C2O)C1C` (configuration not stated), for which the TGI in the assay with RXF-631 renal was 0.0249 µM and 0.0329 µM.
